Results taken from ChEMBL document CHEMBL1201862, “PubChem BioAssay data set” (2004).
Activity calls are given as the source filed them. Rule as the data show it, for most assays here: actives have a measured EC50 and inactives only a lower limit.

Columns and labels:
[1] = Luminescence Cell-Based Dose Response HTS to Identify Inhibitors of 5'UTR Stem-Loop Driven Prion Protein mRNA Translation in H4 Neuroglioblastoma Cells. [Related pubchem assays: 1827 (Project Summary), 1813 (Primary HTS)]; format: functional
[2] = inhibitors of firefly luciferase expression or activity, dose response, H4 neuroglioma cells, luminescence (AID 1990); format: functional, cell-based
[3] = inhibitors of SNCA 5'UTR-driven reporter translation, confirmation, H4 neuroglioma cells, luminescence (AID 1988); format: functional, cell-based
[4] = Luminescence Cell-Based Dose Retest to Confirm Inhibitors of Cancer Stem Cells. [Related pubchem assays (depositor defined):AID2717, AID2721]; format: functional, Homo sapiens
[5] = tested on: Streptococcus; test: Group A Streptococcus viability loss, dose response, counter-screen for streptokinase expression inhibitor project, luminescence, BacTiterGlo (AID 1915); format: functional, organism-based;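 also: potency for reduction of bacterial viability or growth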
[6] = tested on: Streptococcus sp. 'group A'; test: growth inhibition of control SK(-) GAS strain, dose response, counter-screen for streptokinase expression inhibitor project, luminescence, kanamycin, BacTiterGlo, confirmation (AID 1900); format: functional, organism-based
[7] = target: T1, RNA-binding protein pos-1 (Caenorhabditis elegans, UniProt G5EF15); test: inhibitors of POS-1/mex-3 RNA binding, dose response, biochemical, fluorescence polarization (AID 1964);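 also: purified POS-1 fused to maltose binding protein made in E. coli; potency of compounds blocking POS-1 binding to fluorescent RNA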
T1 sequence (G5EF15 whole entry): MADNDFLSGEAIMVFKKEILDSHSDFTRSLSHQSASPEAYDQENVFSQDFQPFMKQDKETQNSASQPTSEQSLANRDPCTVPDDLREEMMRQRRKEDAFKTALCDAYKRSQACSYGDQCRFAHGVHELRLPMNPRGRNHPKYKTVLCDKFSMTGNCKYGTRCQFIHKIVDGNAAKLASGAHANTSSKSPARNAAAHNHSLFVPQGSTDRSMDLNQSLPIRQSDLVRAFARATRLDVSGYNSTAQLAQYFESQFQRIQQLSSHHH

[8] = target: T2, Heat shock factor protein 1 (Mus musculus, UniProt P38532); test: HSF1 potentiators in luciferase reporter cells, confirmation, cell-based, NIH3T3, luminescence, dose retest (AID 435004); format: functional;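 also: stress induced by proteasome inhibitor MG132 added 30 min after compound; luciferase reporter driven by HSF1 response element in NIH3T3 cells; actives raise luminescence as potentiators of the MG132 stress response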
T2 sequence (P38532 whole entry): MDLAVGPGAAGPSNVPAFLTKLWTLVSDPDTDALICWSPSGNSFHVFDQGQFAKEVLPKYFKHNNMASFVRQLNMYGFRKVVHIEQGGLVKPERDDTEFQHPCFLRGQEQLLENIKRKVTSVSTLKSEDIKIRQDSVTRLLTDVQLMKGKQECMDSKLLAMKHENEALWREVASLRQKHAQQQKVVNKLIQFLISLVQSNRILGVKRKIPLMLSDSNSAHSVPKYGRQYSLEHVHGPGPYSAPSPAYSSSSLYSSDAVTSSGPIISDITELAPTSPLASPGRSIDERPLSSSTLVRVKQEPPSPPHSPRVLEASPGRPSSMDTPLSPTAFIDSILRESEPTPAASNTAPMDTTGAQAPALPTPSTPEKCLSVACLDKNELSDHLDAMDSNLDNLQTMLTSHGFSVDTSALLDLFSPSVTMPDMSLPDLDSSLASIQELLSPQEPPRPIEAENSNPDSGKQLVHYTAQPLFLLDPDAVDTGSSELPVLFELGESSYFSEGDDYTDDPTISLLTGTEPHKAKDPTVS

[9] = cytotoxicity toward NIH3T3 fibroblasts, dose response, counter-screen, cell-based, ATP luminescence, mouse fibroblasts (AID 2010); format: functional;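 also: cells exposed to compound for about 90 hours before reading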
[10] = inhibitors of intracellular T. cruzi replication, confirmation, NIH3T3 host cells, beta-gal luminescence (AID 2044); format: functional, cell-based;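 also: intracellular parasites grown in NIH/3T3 mouse fibroblasts as host cells; luminescent beta-galactosidase reporter signal from transgenic T. cruzi replicating inside host cells; inhibitors lower the luminescence signal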
[11] = target: T3, Streptokinase A (Streptococcus pyogenes serotype M1, UniProt P10520); test: S. pyogenes streptokinase expression inhibitors, potency, dose response, plasminogen activation absorbance, OD405 (AID 1914); format: functional, Streptococcus pyogenes M1 GAS;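 also: secreted streptokinase activity via plasminogen activation per viability signal from cell pellet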
T3 sequence (P10520 whole entry): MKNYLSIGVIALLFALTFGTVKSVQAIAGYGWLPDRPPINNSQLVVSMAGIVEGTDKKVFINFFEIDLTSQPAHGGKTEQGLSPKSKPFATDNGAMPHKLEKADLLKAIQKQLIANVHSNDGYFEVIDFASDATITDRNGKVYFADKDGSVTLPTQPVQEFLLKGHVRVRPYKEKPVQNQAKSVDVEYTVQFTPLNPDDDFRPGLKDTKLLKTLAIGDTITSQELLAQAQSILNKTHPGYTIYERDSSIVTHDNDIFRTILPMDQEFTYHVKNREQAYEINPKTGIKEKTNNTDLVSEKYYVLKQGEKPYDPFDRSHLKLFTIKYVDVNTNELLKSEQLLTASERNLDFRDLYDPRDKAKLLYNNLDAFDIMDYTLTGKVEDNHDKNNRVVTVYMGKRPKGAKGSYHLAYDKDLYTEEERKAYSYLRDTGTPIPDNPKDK

[12] = target: T4, Protein RecA (Mycobacterium tuberculosis, UniProt P9WHJ3); test: Fluorescence Cell-Free Homogeneous Dose Retest to Identify Inhibitors of RecA-Intein Splicing Activity. [Related pubchem assays (depositor defined):AID2097, AID2223, AID489010, AID492950]; format: functional
T4 sequence (P9WHJ3 whole entry): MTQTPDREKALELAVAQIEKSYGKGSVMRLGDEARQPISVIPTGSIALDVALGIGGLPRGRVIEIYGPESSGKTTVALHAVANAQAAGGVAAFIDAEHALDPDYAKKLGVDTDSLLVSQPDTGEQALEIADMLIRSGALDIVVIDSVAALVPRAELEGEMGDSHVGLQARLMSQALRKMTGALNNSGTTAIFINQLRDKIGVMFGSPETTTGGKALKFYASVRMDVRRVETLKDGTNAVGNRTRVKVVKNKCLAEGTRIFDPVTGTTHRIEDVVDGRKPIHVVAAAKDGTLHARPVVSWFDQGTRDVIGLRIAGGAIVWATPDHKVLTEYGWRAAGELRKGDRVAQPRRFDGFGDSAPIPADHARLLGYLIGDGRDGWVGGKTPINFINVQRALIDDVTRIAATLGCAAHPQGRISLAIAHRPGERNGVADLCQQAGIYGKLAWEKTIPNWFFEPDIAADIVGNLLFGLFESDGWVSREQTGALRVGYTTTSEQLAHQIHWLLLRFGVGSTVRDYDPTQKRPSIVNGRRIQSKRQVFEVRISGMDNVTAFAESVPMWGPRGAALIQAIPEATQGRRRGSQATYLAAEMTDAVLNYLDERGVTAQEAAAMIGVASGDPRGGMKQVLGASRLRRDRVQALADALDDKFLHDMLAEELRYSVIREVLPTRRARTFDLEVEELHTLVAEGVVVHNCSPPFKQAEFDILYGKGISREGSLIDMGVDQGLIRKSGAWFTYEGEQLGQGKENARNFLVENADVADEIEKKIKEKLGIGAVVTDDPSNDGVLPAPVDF

[13] = target: T5, Replicative DNA helicase DnaB (Mycobacterium tuberculosis, UniProt P9WMR3); test: DnaB intein splicing inhibitors, dose response, biochemical, cell-free fluorescence (AID 449749); format: functional
T5 sequence (P9WMR3 whole entry): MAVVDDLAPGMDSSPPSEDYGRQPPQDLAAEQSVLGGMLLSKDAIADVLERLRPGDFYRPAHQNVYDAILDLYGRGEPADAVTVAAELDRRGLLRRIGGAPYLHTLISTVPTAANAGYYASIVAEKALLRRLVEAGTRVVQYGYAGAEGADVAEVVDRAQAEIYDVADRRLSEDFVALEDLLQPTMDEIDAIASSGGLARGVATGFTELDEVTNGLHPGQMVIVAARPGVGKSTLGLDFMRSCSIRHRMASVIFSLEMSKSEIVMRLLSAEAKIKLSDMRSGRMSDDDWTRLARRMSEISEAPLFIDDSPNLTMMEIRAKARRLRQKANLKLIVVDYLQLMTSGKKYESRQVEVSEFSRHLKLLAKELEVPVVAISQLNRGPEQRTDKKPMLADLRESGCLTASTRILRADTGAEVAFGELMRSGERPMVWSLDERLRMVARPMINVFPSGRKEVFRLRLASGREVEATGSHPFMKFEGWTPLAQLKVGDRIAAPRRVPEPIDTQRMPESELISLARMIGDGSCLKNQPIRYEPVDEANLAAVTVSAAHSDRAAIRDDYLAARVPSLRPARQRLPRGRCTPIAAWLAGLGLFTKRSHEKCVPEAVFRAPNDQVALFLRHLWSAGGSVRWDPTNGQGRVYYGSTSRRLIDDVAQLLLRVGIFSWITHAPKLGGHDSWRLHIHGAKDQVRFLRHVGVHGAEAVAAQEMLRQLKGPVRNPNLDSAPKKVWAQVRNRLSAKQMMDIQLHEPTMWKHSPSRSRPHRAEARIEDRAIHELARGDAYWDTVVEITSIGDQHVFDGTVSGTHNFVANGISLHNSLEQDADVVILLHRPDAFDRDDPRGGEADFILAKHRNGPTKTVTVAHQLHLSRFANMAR

SMILES | EC50 [1] | EC50 [2] | EC50 [3] | also measured
O=[N+]([O-])c1ccc(OCc2cn([C@@H](CO)c3ccccc3)nn2)c(Br)c1 | > 120 µM (not active) | > 120 µM (not active) | > 120 µM (not active) | –
Cc1ccc(N2CC(C(=O)Nc3nnc(SCC(=O)Nc4cc(C)on4)s3)CC2=O)cc1 (stereo not given) | > 120 µM (not active) | > 120 µM (not active) | > 120 µM (not active) | –
CC1CCc2nc(NCCO)nc(C(F)(F)F)c2C1 (stereo not given) | 26.1 µM (active) | 12.5 µM (active) | > 120 µM (not active) | –
O=c1cc(N2CCCCC2)c(-c2ccccc2)nn1Cc1c(Cl)cccc1Cl | > 120 µM (not active) | 14.8 µM (active) | > 120 µM (not active) | AC50 ([4]; Homo sapiens): 4.43 µM (active); EC50 [5]: 5.18 µM (active); EC50 [6]: 5.65 µM (active)
CCN(CC)c1ccc(N/C=C2/C(=O)NC(=O)N(Cc3ccccc3)C2=O)cc1 | – | – | – | EC50 [7]: > 300 µM (not active)
NC(=O)c1sc2nc3c(c(-c4ccc(Cl)cc4)c2c1N)CCCC3 | > 120 µM (not active) | 12.5 µM (active) | 12.3 µM (active) | –
Clc1cccc(CN2CCN(Cc3nc(CCc4ccccc4)no3)CC2)c1 | 32.3 µM (active) | > 120 µM (not active) | > 120 µM (not active) | EC50 [8]: > 260 µM (inactive)
Cc1cn(-c2cc(C(=O)Nc3ccc(C)c(NC(=O)C(=O)c4c[nH]c5ccccc45)c3)cc(C(F)(F)F)c2)cn1 | 23 µM (active) | – | – | AC50 ([4]; Homo sapiens): 2.18 µM (active); EC50 [5]: 3.39 µM (active); EC50 [6]: 2.38 µM (active)
COC(=O)C1CCN(C(=O)COC(=O)Cc2c[nH]c3ccccc23)CC1 | > 120 µM (not active) | > 120 µM (not active) | > 120 µM (not active) | –
O=c1c([N+](=O)[O-])c[nH]c2nc(-c3ccncc3)nn12 | 14.2 µM (active) | 15.8 µM (active) | > 120 µM (not active) | –
O=C(CC12CC3CC(CC(C3)C1)C2)NC(=S)NCc1ccccc1 | 18.4 µM (active) | 13.1 µM (active) | 16.8 µM (active) | –
O=C(Cn1cnc2c(cnn2-c2ccc(Cl)cc2)c1=O)N1CCN(c2ccccc2)CC1 | 12 µM (active) | 15.8 µM (active) | 18.4 µM (active) | –
Cc1cccc(C)c1NC(=O)COC(=O)c1cccc2c1C(=O)c1ccccc1C2=O | 13.3 µM (active) | 13.9 µM (active) | > 120 µM (not active) | EC50 [8]: 30.8 µM (active)
Cc1cc(C)c2c(N)c(C(=O)c3ccc(Cl)cc3Cl)sc2n1 | 19.4 µM (active) | 12.2 µM (active) | 13.8 µM (active) | –
O=C(NCCc1c[nH]c2ccccc12)C1CCC(Cn2c(=S)[nH]c3ccccc3c2=O)CC1 (stereo not given) | > 120 µM (not active) | 16.9 µM (active) | 32.1 µM (active) | EC50 [9]: > 60 µM (not active); EC50 [10]: 1.07 µM (active); AC50 ([4]; Homo sapiens): 0.582 µM (active)
Cc1ccc(S(=O)(=O)N(C)CC(=O)N/N=C/c2ccc(C)o2)cc1 | > 120 µM (not active) | > 120 µM (not active) | > 120 µM (not active) | –
N=C(N)c1ccc(OCCCCCOc2ccc(C(=N)N)cc2)cc1 | 10.9 µM (active) | 11.5 µM (active) | 9.9 µM (active) | EC50 [5]: < 0.06 µM (active); EC50 [6]: < 0.06 µM (active); EC50 [11]: 27.9 µM (active)
CCN(CC)CCOc1ccc(/C(=C(/Cl)c2ccccc2)c2ccccc2)cc1 [CLOMIPHENE] | – | – | – | EC50 [8]: 129 µM (active); EC50 [12]: 12.4 µM (active); AC50 [4]: 1.35 µM (active); AC50 [13]: 4.34 µM (active)
